# Test results taken from patent US20040219104A1, “Methods for treatment of tumors” (priority 2003, published 2004).
# System: JJ5 Breast Cancer cells
# Test: Kinetics of binding, internalization and retention of radioactivity in JJ5 breast cancer cells
# Format: cell-based, human
# Details: 37° C.
# Protocol: For the normal breast cell line HBL-100, 8000 EGFR/cell has been reported. The expression of EGFR in breast cancer cell lines has a reported range of 800 EGFR/cell for MCF-7 cells to […] for MDA-MB-468 cells. […] Utilizing the Auger electron emitter ^111In was used in the initial experiments to illustrate the utility of the invention using EGF-^111In-labeled transferrin conjugates. The EGF-^111In-labeled transferrin (0.25-80 ng) was incubated with 1.5×10^6 cells/dish JJ5 Breast Cancer (prepared from BCBM JJ5) cells in 1 mL of 0.1% human serum albumin in 35 mm multiwell culture dishes at 37° C. for 30 minutes. The cells were transferred to a centrifuge tube and centrifuged. The cell pellet was separated from the supernatant and counted in a g-scintillation counter to determine bound (B) and free (F) radioactivity. Non-specific binding was determined by conducting the assay in 100 nM hEGF. The kinetics of binding was determined by incubating 1 ng of EGF-^111In-labeled transferrin conjugate with 3×10^6 JJ5 Breast Cancer cells at 37° C. and determining the proportion of radioactivity bound to the cells at various times up to 24 hours. Internalized fraction was measured by determining the proportion of radioactivity which could not be displaced from the cell surface by 100 nM hEGF. […]
substance,measurement,value
EGF-^111In-labeled transferrin conjugate: conjugate containing human epidermal growth factor (EGF) linked (biotin/streptavidin linker) to 111In-radiolabeled human transferrin,binding by the breast cancer cells (kinetics),rapidly bound
